In patent publication US8476272B2, “Pharmaceutical composition for treatment of type 2 diabetes” (Jiangsu Hengrui Medicine Co., Ltd., priority 2010, dated 2013) one finds plasma glucose and hemoglobin data, which are given here for 3 compounds.

The subject of test [1] is genetic fatty Wistar rats with diabetes. The test is described as follows: 14-day administration to genetic fatty Wistar rats with diabetes: plasma glucose and hemoglobin. The format is in vivo. The settings on record: 14 days, compound A or MK-0431 10 mg/kg/day p.o., metformin 100 mg/kg/day, mean ± SD, n=5-6; for hemoglobin: hemoglobin Al. Here is the method:
14-19 week-old male Wistar rats were divided into 5 groups, 5-6 each group. […] Blood was collected from caudal vein. The plasma glucose and hemoglobin Al were determined respectively with a commercial kit (NC-ROPET, Nippon Chemiphar CO.) by enzyme method.

For test [2] the test system is unchanged. The test is described as follows: Oral glucose loading test in genetic fatty Wistar rats with diabetes after 7 days of administration. The format is in vivo. The following applies: phosphates 30 mg/kg/day p.o., metformin 100 mg/kg/day, mean ± SD, n=5. Here is the method:
13-14 week-old male Wistar rats were divided into 5 groups, 5 each group. […] Oral glucosieloading test was conducted immediately after fasting overnight (2 g glucose/kg/5 ml, p.o.). Blood was collected from caudal vein before or 120 minutes and 240 minutes after the test, and plasma glucose was analyzed with enzyme method (Encore Chemical System; Baker).

Where [3] appears, read: 0 min (before glucose load 2 g/kg p.o.).
[4] abbreviates: 120 min after glucose load 2 g/kg p.o.
Setting [5] is: 240 min after glucose load 2 g/kg p.o.

SMILES strings stand for the structures.

In test [1], `COC(=O)c1nc(C(F)(F)F)n2c1CN(C(=O)C[C@H](N)Cc1cc(F)c(F)cc1F)CC2` [Compound A, (R)-7-[3-amino-4-(2,4,5-trifluoro-phenyl)-butyryl]-3-trifluoromethyl-5,6,7,8-tetrahydro-imidazo[1,5-a]pyrazine-1-carboxylic acid methyl ester] displayed a plasma glucose of 214 ± 50 and a hemoglobin of 5.3 ± 0.3.
On to `CN(C)C(=N)N=C(N)N` [metformin], for which the plasma glucose in test [1] turned out to be 327 ± 46; in test [2] (setting [3]) it was 119 ± 11 mg/dL; in test [2] (setting [4]) it was 221 ± 62 mg/dL; in test [2] (setting [5]) it was 107 ± 21 mg/dL. The hemoglobin in test [1] is on record as 6.1 ± 0.6.
As for `COC(=O)c1nc(C(F)(F)F)n2c1CN(C(=O)C[C@H](N)Cc1cc(F)c(F)cc1F)CC2` [phosphate of compound A], the plasma glucose in test [2] (setting [3]) turned out to be 103 ± 11 mg/dL; in test [2] (setting [4]) it was 137 ± 17 mg/dL; in test [2] (setting [5]), 102 ± 9 mg/dL.
